Data taken from patent US12187816B2, “Macrocyclic compounds and methods of use thereof” (Genentech, Inc., priority 2020, dated 2025).
Starred links: 1 amine or outer side, 2 acyl side, 3 side chain; linkers in the order of their positions; H or OH if unused. Positions of bridges follow the written chain, without caps; N, C: chain ends. Non-standard residues stand in square brackets, D forms with d. Residues, ends and D or L forms follow the SMILES beside them. Groups on a side chain read outwards from the residue. *: point of attachment. β3hPhg(4-(4-MeThiazol-5-yl)) = Cc1ncsc1-c1ccc([C@@H](CC(=O)[*:2])N[*:1])cc1; JQ1acid = Cc1sc2c(c1C)C(c1ccc(Cl)cc1)=N[C@@H](CC(=O)*)c1nnc(C)n1-2; dPhg(4-(4-Me-thiazol-5-yl)) = Cc1ncsc1-c1ccc([C@@H](N)C(=O)O)cc1; Phg(4-(4-Me-thiazol-5-yl)) = Cc1ncsc1-c1ccc([C@H](N)C(=O)O)cc1; X2 = COc1ccc2c(c1)C(c1ccc(Cl)cc1)=N[C@@H](CC(=O)*)c1nnc(C)n1-2; X12 = Cc1sc2c(c1C)C(c1ccc(Cl)cc1)=N[C@H](CC(=O)*)c1nnc(C)n1-2; X13 = Cc1ncsc1-c1ccc(C[C@@H](N[*:1])C(=O)[*:2])cc1; X9 = O=C(C[C@@H](Cc1ccc(-c2ccccc2)cc1)N[*:1])[*:2]; X6 = Cc1ncsc1-c1ccc([C@H](CC(=O)[*:2])N[*:1])cc1; dBip = N[C@H](Cc1ccc(-c2ccccc2)cc1)C(=O)O; dLys(N3) = [N-]=[N+]=NCCCC[C@@H](N)C(=O)O; Ile(3-Me) = CCC(C)(C)[C@H](N)C(=O)O; Hyp = O=C(O)[C@@H]1C[C@@H](O)CN1; Tle = CC(C)(C)[C@H](N)C(=O)O; X8 = CN(CCOCC(=O)[*:2])[*:1]; AEEEA = NCCOCCOCCOCC(=O)O; dDap = NC[C@@H](N)C(=O)O; Ahp = NCCCCCCC(=O)O; Ahx = NCCCCCC(=O)O; AEA = NCCOCC(=O)O; GABA = NCCCC(=O)O; βAla = NCCC(=O)O

The compounds below were run against T1, BRD4 (Homo sapiens, UniProt O60885) (assay: BRD4 degradation assay in EOL1 cells (immunofluorescence imaging)). Conditions: EoL-1 eosinophilic leukemia cells, 4 hours treatment, nuclear BRD4 immunofluorescence.
T1 construct: Mean 488 intensity of BRD4 quantitated in nuclear region; endogenous in cells; host or cells: EoL-1 eosinophilic leukemia cells
Assay type: cell-based
In short: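 EoL-1 cells treated 4 h at 37 °C with 20-point 1/3 serial dilutions (0.2% DMSO) in RPMI/10% FBS, then fixed and immunostained for BRD4. Mean nuclear BRD4 intensity measured by high-content imaging, with Hoechst nuclear masking. DMSO and no-primary-antibody controls define 0 and 100%; DC50 and maximal effect from dose-response fit.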
Cc1ncsc1-c1ccc([C@H]2NC(=O)[C@@H]3C[C@@H](O)CN3C(=O)[C@H](C(C)(C)C)NC(=O)CSC[C@H](C(N)=O)NC(=O)[C@@H](CNC(=O)COCCOCCOCCNC(=O)C[C@@H]3N=C(c4ccc(Cl)cc4)c4c(sc(C)c4C)-n4c(C)nnc43)NC(=O)CNC2=O)cc1 [Compound 49] ({CH2CO}-[Tle][Hyp][dPhg(4-(4-Me-thiazol-5-yl))]G[dDap]([AEEEA-JQ1acid])[dC]-NH2; thioether N-6) showed a DC50 of over 20000 nM. For COc1ccc2c(c1)C(c1ccc(Cl)cc1)=N[C@@H](CC(=O)NC[C@H]1NC(=O)CNC(=O)[C@@H](c3ccc(-c4scnc4C)cc3)NC(=O)[C@@H]3C[C@@H](O)CN3C(=O)[C@H](C(C)(C)C)NC(=O)CSC[C@H](C(N)=O)NC1=O)c1nnc(C)n1-2 [Compound 50] ({CH2CO}-[Tle][Hyp][dPhg(4-(4-Me-thiazol-5-yl))]G[dDap](X2)[dC]-NH2; thioether N-6), the DC50 was under 1000 nM. In the case of COc1ccc2c(c1)C(c1ccc(Cl)cc1)=N[C@@H](CC(=O)NC[C@H]1NC(=O)CNC(=O)[C@H](c3ccc(-c4scnc4C)cc3)NC(=O)[C@@H]3C[C@@H](O)CN3C(=O)[C@H](C(C)(C)C)NC(=O)CSC[C@H](C(N)=O)NC1=O)c1nnc(C)n1-2 [Compound 51] ({CH2CO}-[Tle][Hyp][Phg(4-(4-Me-thiazol-5-yl))]G[dDap](X2)[dC]-NH2; thioether N-6), the DC50 is reported as over 20000 nM. COc1ccc2c(c1)C(c1ccc(Cl)cc1)=N[C@@H](CC(=O)NC[C@H]1NC(=O)[C@@H](C(C)C)NC(=O)[C@@H](Cc3ccc(-c4ccccc4)cc3)NC(=O)[C@@H]3C[C@@H](O)CN3C(=O)[C@H](C(C)(C)C)NC(=O)COCCNC1=O)c1nnc(C)n1-2 [Compound 52] (cyclo([AEA][Tle][Hyp][dBip][dV][dDap](X2))) showed a DC50 of under 50 nM. Compound Cc1ncsc1-c1ccc([C@H]2NC(=O)[C@@H]3C[C@@H](O)CN3C(=O)[C@H](C(C)(C)C)NC(=O)CSC[C@H](C(N)=O)NC(=O)[C@@H](CNC(=O)C[C@H]3N=C(c4ccc(Cl)cc4)c4c(sc(C)c4C)-n4c(C)nnc43)NC(=O)CNC2=O)cc1 [Compound 53] ({CH2CO}-[Tle][Hyp][dPhg(4-(4-Me-thiazol-5-yl))]G[dDap](X12)[dC]-NH2; thioether N-6) has a DC50 of over 20000 nM. Cc1ncsc1-c1ccc([C@@H]2CC(=O)NCC(=O)N[C@H](CNC(=O)C[C@@H]3N=C(c4ccc(Cl)cc4)c4c(sc(C)c4C)-n4c(C)nnc43)C(=O)NCCOCC(=O)N[C@@H](C(C)(C)C)C(=O)N3C[C@H](O)C[C@H]3C(=O)N2)cc1 [Compound 54] (cyclo([AEA][Tle][Hyp][X6]G[dDap](JQ1acid))) was tested, and the DC50 was under 50 nM. Cc1ncsc1-c1ccc([C@H]2CC(=O)NCC(=O)N[C@H](CNC(=O)C[C@@H]3N=C(c4ccc(Cl)cc4)c4c(sc(C)c4C)-n4c(C)nnc43)C(=O)NCCOCC(=O)N[C@@H](C(C)(C)C)C(=O)N3C[C@H](O)C[C@H]3C(=O)N2)cc1 [Compound 55] (cyclo([AEA][Tle][Hyp][β3hPhg(4-(4-MeThiazol-5-yl))]G[dDap](JQ1acid))) was tested, and the DC50 was under 1000 nM. For Cc1sc2c(c1C)C(c1ccc(Cl)cc1)=N[C@@H](CC(=O)NC[C@H]1NC(=O)[C@@H](C)NC(=O)[C@@H](Cc3ccc(-c4ccccc4)cc3)NC(=O)[C@@H]3C[C@@H](O)CN3C(=O)[C@H](C(C)(C)C)n3cc(nn3)COCCNC1=O)c1nnc(C)n1-2 [Compound 56], the DC50 was under 50 nM. CCC(C)(C)[C@@H]1NC(=O)COCCNC(=O)[C@@H](CNC(=O)C[C@@H]2N=C(c3ccc(Cl)cc3)c3c(sc(C)c3C)-n3c(C)nnc32)NC(=O)[C@@H](C)NC(=O)[C@@H](Cc2ccc(-c3ccccc3)cc2)NC(=O)[C@@H]2C[C@@H](O)CN2C1=O [Compound 57] (cyclo([AEA][Ile(3-Me)][Hyp][dBip][dA][dDap](JQ1acid))) showed a DC50 of under 50 nM. Cc1sc2c(c1C)C(c1ccc(Cl)cc1)=N[C@@H](CC(=O)NC[C@H]1NC(=O)[C@@H](C)NC(=O)[C@@H](Cc3ccc(-c4ccccc4)cc3)NC(=O)[C@@H]3C[C@@H](O)CN3C(=O)[C@H](C(C)(C)C)NC(=O)COCCNC1=O)c1nnc(C)n1-2 [Compound 58] (cyclo([AEA][Tle][Hyp][dBip][dA][dDap](JQ1acid))) showed a DC50 of under 50 nM. Compound Cc1sc2c(c1C)C(c1ccc(Cl)cc1)=N[C@@H](CC(=O)NC[C@H]1NC(=O)[C@@H](C)NC(=O)[C@@H](Cc3ccc(-c4ccccc4)cc3)NC(=O)[C@@H]3C[C@@H](O)CN3C(=O)[C@H](C(C)(C)C)NC(=O)CCCNC1=O)c1nnc(C)n1-2 [Compound 59] (cyclo([GABA][Tle][Hyp][dBip][dA][dDap](JQ1acid))) has a DC50 of under 1000 nM. Cc1sc2c(c1C)C(c1ccc(Cl)cc1)=N[C@@H](CC(=O)NC[C@H]1NC(=O)[C@@H](C)NC(=O)[C@@H](Cc3ccc(-c4ccccc4)cc3)NC(=O)[C@@H]3C[C@@H](O)CN3C(=O)[C@H](C(C)(C)C)NC(=O)CCCCCNC1=O)c1nnc(C)n1-2 [Compound 60] (cyclo([Ahx][Tle][Hyp][dBip][dA][dDap](JQ1acid))) showed a DC50 of under 50 nM. Cc1sc2c(c1C)C(c1ccc(Cl)cc1)=N[C@@H](CC(=O)NC[C@H]1NC(=O)[C@@H](C)NC(=O)[C@@H](Cc3ccc(-c4ccccc4)cc3)NC(=O)[C@@H]3C[C@@H](O)CN3C(=O)[C@H](C(C)(C)C)NC(=O)CCCCCCNC1=O)c1nnc(C)n1-2 [Compound 61] (cyclo([Ahp][Tle][Hyp][dBip][dA][dDap](JQ1acid))) showed a DC50 of under 50 nM. Cc1sc2c(c1C)C(c1ccc(Cl)cc1)=N[C@@H](CC(=O)NC[C@H]1NC(=O)CCNC(=O)[C@@H](Cc3ccc(-c4ccccc4)cc3)NC(=O)[C@@H]3C[C@@H](O)CN3C(=O)[C@H](C(C)(C)C)NC(=O)COCCNC1=O)c1nnc(C)n1-2 [Compound 62] (cyclo([AEA][Tle][Hyp][dBip][βAla][dDap](JQ1acid))) showed a DC50 of under 1000 nM. For Cc1sc2c(c1C)C(c1ccc(Cl)cc1)=N[C@@H](CC(=O)NC[C@H]1NC(=O)[C@@H](C)NC(=O)[C@@H](Cc3ccc(-c4ccccc4)cc3)NC(=O)[C@@H]3C[C@@H](O)CN3C(=O)[C@H](C(C)(C)C)NC(=O)COCCN(C)C1=O)c1nnc(C)n1-2 [Compound 63] (cyclo([Hyp][dBip][dA][dDap](JQ1acid)[X8][Tle])), the DC50 was under 50 nM. Cc1sc2c(c1C)C(c1ccc(Cl)cc1)=N[C@@H](CC(=O)NC[C@H]1NC(=O)CNC(=O)C[C@@H](Cc3ccc(-c4ccccc4)cc3)NC(=O)[C@@H]3C[C@@H](O)CN3C(=O)[C@H](C(C)(C)C)NC(=O)COCCNC1=O)c1nnc(C)n1-2 [Compound 64] (cyclo([AEA][Tle][Hyp][X9]G[dDap](JQ1acid))) gave a DC50 of over 20000 nM. In the case of Cc1sc2c(c1C)C(c1ccc(Cl)cc1)=N[C@@H](CC(=O)NC[C@H]1NC(=O)[C@@H](C)NC(=O)C[C@@H](Cc3ccc(-c4ccccc4)cc3)NC(=O)[C@@H]3C[C@@H](O)CN3C(=O)[C@H](C(C)(C)C)NC(=O)COCCNC1=O)c1nnc(C)n1-2 [Compound 65] (cyclo([AEA][Tle][Hyp][X9][dA][dDap](JQ1acid))), the DC50 is reported as over 20000 nM. Cc1sc2c(c1C)C(c1ccc(Cl)cc1)=N[C@@H](CC(=O)NC[C@H]1NC(=O)[C@@H](CCC(N)=O)NC(=O)[C@@H](Cc3ccc(-c4ccccc4)cc3)NC(=O)[C@@H]3C[C@@H](O)CN3C(=O)[C@H](C(C)(C)C)NC(=O)COCCNC1=O)c1nnc(C)n1-2 [Compound 66] (cyclo([AEA][Tle][Hyp][dBip][dQ][dDap](JQ1acid))) showed a DC50 of under 1000 nM. Work on Cc1sc2c(c1C)C(c1ccc(Cl)cc1)=N[C@@H](CC(=O)NC[C@H]1CCCNC(=O)[C@@H](Cc3ccc(-c4ccccc4)cc3)NC(=O)[C@@H]3C[C@@H](O)CN3C(=O)[C@H](C(C)(C)C)NC(=O)COCCNC1=O)c1nnc(C)n1-2 [Compound 67] yielded a DC50 of under 50 nM. With Cc1ncsc1-c1ccc([C@H]2NC(=O)[C@@H]3C[C@@H](O)CN3C(=O)[C@H](C(C)(C)C)NC(=O)CSC[C@H](C(N)=O)NC(=O)[C@@H](NC(=O)C[C@@H]3N=C(c4ccc(Cl)cc4)c4c(sc(C)c4C)-n4c(C)nnc43)NC(=O)CNC2=O)cc1 [Compound 68] the DC50 was over 20000 nM. Cc1ncsc1-c1ccc([C@H]2NC(=O)[C@@H]3C[C@@H](O)CN3C(=O)[C@H](C(C)(C)C)NC(=O)CSC[C@H](C(N)=O)NC(=O)[C@H](NC(=O)C[C@@H]3N=C(c4ccc(Cl)cc4)c4c(sc(C)c4C)-n4c(C)nnc43)NC(=O)CNC2=O)cc1 [Compound 69] gave a DC50 of over 20000 nM. Compound Cc1ncsc1-c1ccc(C[C@H]2NC(=O)[C@@H]3C[C@@H](O)CN3C(=O)[C@H](C(C)(C)C)NC(=O)COCCNC(=O)[C@@H](CNC(=O)C[C@@H]3N=C(c4ccc(Cl)cc4)c4c(sc(C)c4C)-n4c(C)nnc43)NC(=O)[C@@H](C)NC2=O)cc1 [Compound 70] (cyclo([AEA][Tle][Hyp][X13][dA][dDap](JQ1acid))) has a DC50 of under 50 nM. Compound Cc1sc2c(c1C)C(c1ccc(Cl)cc1)=N[C@@H](CC(=O)NC[C@H]1NC(=O)[C@@H](CCCCN=[N+]=[N-])NC(=O)[C@@H](Cc3ccc(-c4ccccc4)cc3)NC(=O)[C@@H]3C[C@@H](O)CN3C(=O)[C@H](C(C)(C)C)NC(=O)COCCNC1=O)c1nnc(C)n1-2 [Compound 71] (cyclo([AEA][Tle][Hyp][dBip][dLys(N3)][dDap](JQ1acid))) has a DC50 of under 1000 nM. Cc1sc2c(c1C)C(c1ccc(Cl)cc1)=N[C@@H](CC(=O)NC[C@H]1NC(=O)[C@@H](CCCCN)NC(=O)[C@@H](Cc3ccc(-c4ccccc4)cc3)NC(=O)[C@@H]3C[C@@H](O)CN3C(=O)[C@H](C(C)(C)C)NC(=O)COCCNC1=O)c1nnc(C)n1-2 [Compound 72] (cyclo([AEA][Tle][Hyp][dBip][dK][dDap](JQ1acid))) gave a DC50 of under 1000 nM. Cc1sc2c(c1C)C(c1ccc(Cl)cc1)=N[C@@H](CC(=O)NC[C@H]1NC(=O)CNC(=O)[C@@H](Cc3ccc(-c4ccccc4)cc3)NC(=O)[C@@H]3C[C@@H](O)CN3C(=O)[C@H](C(C)(C)C)n3cc(nn3)COCCNC1=O)c1nnc(C)n1-2 [Compound 200] was tested, and the DC50 was under 50 nM. With Cc1sc2c(c1C)C(c1ccc(Cl)cc1)=N[C@@H](CC(=O)NC[C@H]1NC(=O)[C@@H](C)NC(=O)[C@@H](Cc3ccc(-c4ccccc4)cc3)NC(=O)[C@@H]3C[C@@H](O)CN3C(=O)[C@H](C(C)(C)C)n3cc(nn3)COCCNC1=O)c1nnc(C)n1-2 [Compound 201] the DC50 was under 50 nM.
